Marks after values point to notes of the source that are not given here.
Test system: multi-species bacterial consortium
Test: dose-challenge efficacy assay against bacterial consortium, spread plate cell enumeration
Type: cell-based
Conditions: for effect on cell counts of the consortium (in words) / population size of bacterial consortium, log10 colony counts: Example 1; for effect on cell counts of the consortium (in words): 0.5 mg/l total, 20 minutes exposure, pH 5 to 8; for population size of bacterial consortium, log10 colony counts: 20 minute exposure, total halogen 0.5 mg/l, average of three values; for numbers of surviving cells, Log10 transformations of the plate counts: Example 2, 20-minute contact time, 0.5 mg/l (as Cl2) active, initial approx. 2×10^5 bacteria per milliliter
Description: The efficacies of the individual haloamines and the synergistic combination produced with the apparatus described above were determined using a consortium of microorganisms and a dose-response protocol. Concentrations of monochloramine and dichloramine reported herein are in units of milligrams per liter as measured by Cl2 analysis; the Hach DPD chlorine test (Hach Company, Loveland, Colo.) was used to measure the total available chlorine concentrations and are expressed as milligrams per liter as Cl2. The DPD assay is based on the amount of chlorine in a sample that reacts with N,N-diethyl-p-phenylenediamine oxalate. To determine the amount of monochloramine or dichloramine in a sample, an aliquot of the sample was transferred to a clean container, diluted with deionized water, as appropriate, and assayed according to the Hach DPD chlorine test. The assay measures the total amount of chlorine that can react with the indicator reagent. The reaction is measured by determining the absorbance of light at 530 nm. Therefore, for the purposes of this invention, a quantity of monochloramine or dichloramine presented in units of mg/l signifies that amount of monochloramine or dichloramine that contains the designated amount of milligrams per liter of reactive chlorine. Thus, for example, a sample treated with 1 mg/l monochloramine or dichloramine will contain a total available chlorine concentration of 1 mg/l. Similarly, a sample treated with 0.5 mg/l monochloramine and 0.5-mg/l dichloramine will contain a total available chlorine concentration of 1 mg/l.
The materials were tested against multi-species bacterial consortium (also referred to as an artificial consortium) containing approximately equal numbers of six bacterial strains. Although the test strains are representative of organisms present in paper mill systems; the effect is not limited to these bacteria. Two of the strains were Klebsiella pneumonia (ATCC 13883) and Pseudomonas aeruginosa (ATCC 15442). The other four strains were isolated from papermill systems and have been presumptively identified as Curtobacterium flaccumfaciens, Burkholderia cepacia, Bacillus maroccanus, and Pseudomonas glathei. Each strain was grown on Tryptic Soy Agar overnight at 37° C. Sterile cotton-tipped swabs were used to aseptically transfer cells to a sterile solution of saline. Each cell suspension was prepared to a desired concentration as measured by turbidity before equal volumes of each of the cell suspensions were then combined to prepare the consortium.
A sample of the biocide solution was aseptically collected at the end of line 11 after the apparatus had been operated for approximately 20 minutes and used in an efficacy assay. Samples of the monochloramine solution in reservoir 3 and the dichloramine solution in mixing chamber 16 were also collected to test efficacy of each active. In the assay, the bacterial consortium was prepared as described above and an appropriate quantity of the cell suspension was aseptically transferred to sterile saline with pH adjusted to selected values. The cells were then challenged with the haloamines and synergistic combinations of the haloamines. In each case, the total halogen concentration was 0.5 mg/l (as […]). In this example, in addition to untreated control, the consortium was exposed to the following treatments: (1) 0.5 mg/l of monochloramine; 0.5 mg/l dichloramine; (3) 0.25 mg/l monochloramine plus 0.25 mg/l dichloramine; and (4) 0.4 mg/l monochloramine plus 0.1 mg/l dichloramine. The consortium was exposed to the haloamines for 20 minutes before samples were removed for cell enumeration by the spread plate technique. […] The control counts presented in Table 1 are those obtained after a 20 minute exposure to saline with pH adjusted to the indicated value.
The dose-challenge studies were carried out as previously described using a freshly prepared bacterial consortium. Sterile saline was prepared with pH adjusted to values of 5.0, 6.0, 7.0 and 8.0. […]

SMILES: NCl [MCA, monochloramine]
- effect on cell counts of the consortium (in words): decreased cell counts
- population size of bacterial consortium, log10 colony counts (pH 5 saline): 4.93 log10 colony counts
- population size of bacterial consortium, log10 colony counts (pH 6 saline): 4.94 log10 colony counts
- population size of bacterial consortium, log10 colony counts (pH 7 saline): 5.06 log10 colony counts
- population size of bacterial consortium, log10 colony counts (pH 8 saline): 5.36 log10 colony counts
- numbers of surviving cells, Log10 transformations of the plate counts (pH 5 saline): 5.03 Log10
- numbers of surviving cells, Log10 transformations of the plate counts (pH 6 saline): 4.84 Log10
- numbers of surviving cells, Log10 transformations of the plate counts (pH 7 saline): 5.13 Log10
- numbers of surviving cells, Log10 transformations of the plate counts (pH 8 saline): 5.41 Log10

SMILES: ClNCl [DCA, dichloramine]
- effect on cell counts of the consortium (in words): decreased cell counts
- population size of bacterial consortium, log10 colony counts (pH 5 saline): 3.50 log10 colony counts
- population size of bacterial consortium, log10 colony counts (pH 6 saline): 5.16 log10 colony counts
- population size of bacterial consortium, log10 colony counts (pH 7 saline): 5.01 log10 colony counts
- population size of bacterial consortium, log10 colony counts (pH 8 saline): 5.19 log10 colony counts
- numbers of surviving cells, Log10 transformations of the plate counts (pH 5 saline): 3.56 Log10
- numbers of surviving cells, Log10 transformations of the plate counts (pH 6 saline): 5.16* Log10
- numbers of surviving cells, Log10 transformations of the plate counts (pH 7 saline): 5.07 Log10
- numbers of surviving cells, Log10 transformations of the plate counts (pH 8 saline): 5.24 Log10

Reference: patent US7311878B2, “Method and apparatus for producing synergistic biocide” (Hercules Incorporated, priority 2005, dated 2007)
